Where two headings read alike, the source gives them in different places.
How the values were obtained:
AmtB = molecular target: T1, AmtB (Escherichia coli, UniProt P69681); assay: Native MS lipid titration, lipid binding to AmtB (equilibrium-coupled binding model); conditions: 50 µM ADP, 298 K
T1 construct: pelB signal peptide (N, cleaved yes); 10x His-tag (N, cleaved yes); made in house; host or cells: Escherichia coli C41(DE3), pET15b
Protocol: (§1) A stock of ADP was prepared by dissolving the ammonium salt form of ADP in water followed by adjusting the pH with ammonium hydroxide to 7.0. Serial dilutions into MS buffer (200 mM ammonium acetate, 0.5% C8E4, and pH adjusted to 7.4 with ammonium hydroxide) supplemented with 5 mM BME was performed to prepare ADP at certain concentrations. Phospholipids were prepared as previously described. In brief, stock solutions of each phospholipid were resuspended in chloroform, aliqouted, and chloroform was removed by a steady stream on nitrogen gas. Lipid films were placed under vacuum overnight to prepare to resuspend in MS buffer supplemented with 5 mM 2-mercaptoethanol. Phospholipid concentration was determined by phosphorus analysis.

AmtB–GlnK interaction = molecular target: T2, AmtB–GlnK interaction (Escherichia coli, UniProt P69681); assay: Native MS lipid titration, GlnK binding to apo or lipid-bound AmtB; coupling factors (allosteric modulation); conditions: for Kd: 50 µM ADP, 298 K; for Coupling factor a1: first bound lipid; for allosteric modulation of AmtB–GlnK (from coupling factors) / effect of lipid-binding events on K D,ALnG: result in words; for Coupling factor a2: second bound lipid; for Coupling factor a3: third bound lipid; for increase in the coupling factor per lipid-binding event: linear fit to the coupling factors as a function of bound lipid
T2 construct: pelB signal peptide (N, cleaved yes); 10x His-tag (N, cleaved yes); made in house; host or cells: AmtB: Escherichia coli C41(DE3), pET15b; stGlnK: Escherichia coli ArcticExpress (DE3) RIL, pET28b
T2 sequence (P0AC55 whole entry Y51F): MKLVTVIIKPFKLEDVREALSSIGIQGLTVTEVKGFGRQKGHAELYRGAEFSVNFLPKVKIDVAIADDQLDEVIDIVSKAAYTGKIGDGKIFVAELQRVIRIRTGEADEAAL
T2 sequence (P69681 23-428): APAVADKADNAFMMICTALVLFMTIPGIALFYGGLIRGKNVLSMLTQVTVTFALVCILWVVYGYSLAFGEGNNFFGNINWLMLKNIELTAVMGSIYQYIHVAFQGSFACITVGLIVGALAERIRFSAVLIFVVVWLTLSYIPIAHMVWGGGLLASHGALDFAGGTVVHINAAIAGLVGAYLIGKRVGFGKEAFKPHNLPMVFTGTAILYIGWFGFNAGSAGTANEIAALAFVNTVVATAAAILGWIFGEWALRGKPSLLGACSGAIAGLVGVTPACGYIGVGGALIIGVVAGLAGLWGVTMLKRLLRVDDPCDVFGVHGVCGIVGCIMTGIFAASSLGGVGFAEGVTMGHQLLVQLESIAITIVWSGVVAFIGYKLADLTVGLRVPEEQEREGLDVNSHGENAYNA
Protocol: as §1

AmtB–GlnK complex = molecular target: T3, AmtB–GlnK complex (Escherichia coli, UniProt P69681); assay: Native MS lipid titration, lipid binding to AmtB–GlnK (equilibrium-coupled binding model); conditions: 50 µM ADP, 298 K
T3 construct: pelB signal peptide (N, cleaved yes); 10x His-tag (N, cleaved yes); made in house; host or cells: AmtB: Escherichia coli C41(DE3), pET15b; stGlnK: Escherichia coli ArcticExpress (DE3) RIL, pET28b
T3 sequence (P0AC55 whole entry Y51F): as the sequence (P0AC55 whole entry Y51F) above
T3 sequence (P69681 23-428): as the sequence (P69681 23-428) above
Protocol: as §1

[1] = KD,AL1, first lipid binding to AmtB
[2] = KD,AL2, second lipid binding to AmtB
[3] = KD,AL3, third lipid binding to AmtB
[4] = KD,AG, GlnK binding apo AmtB, from global fit of the titration with the named lipid
[5] = KD,AL2G, GlnK binding AmtB bound to 2 lipids
[6] = KD,AL3G, GlnK binding AmtB bound to 3 lipids
[7] = KD,ALG, GlnK binding AmtB bound to 1 lipid
[8] = KD,AGL1, first lipid binding to AmtB–GlnK
[9] = KD,AGL2, second lipid binding to AmtB–GlnK
[10] = KD,AGL3, third lipid binding to AmtB–GlnK

T1 sequence (P69681 23-428): as above

CCCCCCCC/C=C\CCCCCCCC(=O)O[C@H](COC(=O)CCCCCCCCCCCCCCC)COP(=O)(O)O [POPA]
Kd (AmtB; [1]): 8.11 ± 0.41 µM
Kd (AmtB; [2]): 18.1 ± 1.18 µM
Kd (AmtB; [3]): 24.7 ± 2.44 µM
Kd (AmtB–GlnK interaction; [4]): 0.517 ± 0.0463 µM
Kd (AmtB–GlnK interaction; [5]): 0.707 ± 0.0945 µM
Kd (AmtB–GlnK interaction; [6]): 0.75 ± 0.0992 µM
Kd (AmtB–GlnK interaction; [7]): 0.644 ± 0.0735 µM
Coupling factor a1 (AmtB–GlnK interaction): 0.81 ± 0.02
allosteric modulation of AmtB–GlnK (from coupling factors) (AmtB–GlnK interaction): slight negative allosteric modulation
effect of lipid-binding events on K D,ALnG (AmtB–GlnK interaction): each binding event weakening the molecular interaction between AmtB and GlnK
Coupling factor a2 (AmtB–GlnK interaction): 0.92 ± 0.04
Coupling factor a3 (AmtB–GlnK interaction): 0.94 ± 0.04
Kd (AmtB–GlnK complex; [8]): 10 ± 0.31 µM
Kd (AmtB–GlnK complex; [9]): 19.8 ± 0.58 µM
Kd (AmtB–GlnK complex; [10]): 26.2 ± 2.19 µM

CCCCCCCC/C=C\CCCCCCCC(=O)O[C@H](COC(=O)CCCCCCCCCCCCCCC)COP(=O)([O-])OCC[N+](C)(C)C [POPC]
Kd (AmtB; [1]): 29.2 ± 5.99 µM
Kd (AmtB; [2]): 68.3 ± 4.81 µM
Kd (AmtB; [3]): 104 ± 7.56 µM
Kd (AmtB–GlnK interaction; [4]): 0.486 ± 0.0325 µM
Kd (AmtB–GlnK interaction; [5]): 0.192 ± 0.0112 µM
Kd (AmtB–GlnK interaction; [7]): 0.345 ± 0.0822 µM
Coupling factor a1 (AmtB–GlnK interaction): 1.52 ± 0.23
effect of lipid-binding events on K D,ALnG (AmtB–GlnK interaction): decrease in K D,ALnG with each consecutive binding event
Coupling factor a2 (AmtB–GlnK interaction): 1.76 ± 0.31
Coupling factor a3 (AmtB–GlnK interaction): 2.50 ± 0.80
Kd (AmtB–GlnK complex; [8]): 18.9 ± 1.36 µM
Kd (AmtB–GlnK complex; [9]): 40.3 ± 3.92 µM
Kd (AmtB–GlnK complex; [10]): 59.5 ± 17.9 µM

CCCCCCCC/C=C\CCCCCCCC(=O)O[C@H](COC(=O)CCCCCCCCCCCCCCC)COP(=O)(O)OCCN [POPE]
Kd (AmtB; [1]): 21.1 ± 0.27 µM
Kd (AmtB; [2]): 55.3 ± 9.22 µM
Kd (AmtB; [3]): 96.2 ± 27 µM
Kd (AmtB–GlnK interaction; [4]): 0.504 ± 0.0616 µM
Kd (AmtB–GlnK interaction; [5]): 0.245 ± 0.0372 µM
Kd (AmtB–GlnK interaction; [6]): 0.137 ± 0.0482 µM
Kd (AmtB–GlnK interaction; [7]): 0.391 ± 0.0593 µM
Coupling factor a1 (AmtB–GlnK interaction): 1.30 ± 0.04
increase in the coupling factor per lipid-binding event (AmtB–GlnK interaction): 0.4
allosteric modulation of AmtB–GlnK (from coupling factors) (AmtB–GlnK interaction): positive allosteric modulation
effect of lipid-binding events on K D,ALnG (AmtB–GlnK interaction): decrease in K D,ALnG with each consecutive binding event
Coupling factor a2 (AmtB–GlnK interaction): 1.63 ± 0.24
Coupling factor a3 (AmtB–GlnK interaction): 2.04 ± 0.37
Kd (AmtB–GlnK complex; [8]): 16.3 ± 0.4 µM
Kd (AmtB–GlnK complex; [9]): 33.6 ± 1.24 µM
Kd (AmtB–GlnK complex; [10]): 47.7 ± 7.02 µM

CCCCCCCC/C=C\CCCCCCCC(=O)O[C@H](COC(=O)CCCCCCCCCCCCCCC)COP(=O)(O)OCC(O)CO (stereo partly shown) [POPG]
Kd (AmtB; [1]): 13.5 ± 0.73 µM
Kd (AmtB; [2]): 33.3 ± 6.39 µM
Kd (AmtB; [3]): 56.7 ± 11.8 µM
Kd (AmtB–GlnK interaction; [4]): 0.54 ± 0.0267 µM
Kd (AmtB–GlnK interaction; [5]): 0.396 ± 0.0754 µM
Kd (AmtB–GlnK interaction; [6]): 0.313 ± 0.162 µM
Kd (AmtB–GlnK interaction; [7]): 0.485 ± 0.0356 µM
Coupling factor a1 (AmtB–GlnK interaction): 1.12 ± 0.06
increase in the coupling factor per lipid-binding event (AmtB–GlnK interaction): 0.3
allosteric modulation of AmtB–GlnK (from coupling factors) (AmtB–GlnK interaction): positive allosteric modulation
effect of lipid-binding events on K D,ALnG (AmtB–GlnK interaction): decrease in K D,ALnG with each consecutive binding event
Coupling factor a2 (AmtB–GlnK interaction): 1.30 ± 0.21
Coupling factor a3 (AmtB–GlnK interaction): 1.74 ± 0.46
Kd (AmtB–GlnK complex; [8]): 12.04 ± 0.06 µM
Kd (AmtB–GlnK complex; [9]): 25.4 ± 1.11 µM
Kd (AmtB–GlnK complex; [10]): 34.3 ± 3.4 µM

CCCCCCCC/C=C\CCCCCCCC(=O)O[C@H](COC(=O)CCCCCCCCCCCCCCC)COP(=O)(O)OC[C@H](N)C(=O)O [POPS]
Kd (AmtB; [1]): 10.5 ± 0.97 µM
Kd (AmtB; [2]): 21.8 ± 1.97 µM
Kd (AmtB; [3]): 30.4 ± 4.97 µM
Kd (AmtB–GlnK interaction; [4]): 0.499 ± 0.0347 µM
Kd (AmtB–GlnK interaction; [5]): 0.405 ± 0.0395 µM
Kd (AmtB–GlnK interaction; [6]): 0.363 ± 0.0372 µM
Kd (AmtB–GlnK interaction; [7]): 0.446 ± 0.0644 µM
Coupling factor a1 (AmtB–GlnK interaction): 1.15 ± 0.09
allosteric modulation of AmtB–GlnK (from coupling factors) (AmtB–GlnK interaction): neutral allosteric modulation
effect of lipid-binding events on K D,ALnG (AmtB–GlnK interaction): little effect on K D,ALnG
Coupling factor a2 (AmtB–GlnK interaction): 1.09 ± 0.08
Coupling factor a3 (AmtB–GlnK interaction): 1.13 ± 0.10
Kd (AmtB–GlnK complex; [8]): 9.18 ± 0.6 µM
Kd (AmtB–GlnK complex; [9]): 19.9 ± 0.36 µM
Kd (AmtB–GlnK complex; [10]): 26.7 ± 1.82 µM

CCCCCCCC/C=C\CCCCCCCC(=O)O[C@H](COC(=O)CCCCCCCCCCCCCCCCC)COP(=O)(O)OCCN [SOPE]
Kd (AmtB; [1]): 16.4 ± 1.39 µM
Kd (AmtB; [2]): 46.6 ± 9.46 µM
Kd (AmtB; [3]): 73.6 ± 22 µM
Kd (AmtB–GlnK interaction; [4]): 0.528 ± 0.0448 µM
Kd (AmtB–GlnK interaction; [5]): 0.321 ± 0.0944 µM
Kd (AmtB–GlnK interaction; [6]): 0.215 ± 0.0607 µM
Kd (AmtB–GlnK interaction; [7]): 0.482 ± 0.0919 µM
Coupling factor a1 (AmtB–GlnK interaction): 1.16 ± 0.19
Coupling factor a2 (AmtB–GlnK interaction): 1.60 ± 0.19
Coupling factor a3 (AmtB–GlnK interaction): 1.57 ± 0.25
Kd (AmtB–GlnK complex; [8]): 14.5 ± 1.28 µM
Kd (AmtB–GlnK complex; [9]): 2.85 ± 2.32 µM
Kd (AmtB–GlnK complex; [10]): 45.2 ± 7.56 µM

CCCCCCCC/C=C\CCCCCCCC(=O)OC[C@H](COP(=O)(O)OCC(O)COP(=O)(O)OC[C@@H](COC(=O)CCCCCCC/C=C\CCCCCCCC)OC(=O)CCCCCCC/C=C\CCCCCCCC)OC(=O)CCCCCCC/C=C\CCCCCCCC (stereo partly shown) [TOCDL, 1,1′,2,2′-tetraoleoyl-cardiolipin]
Kd (AmtB; read-out: KD,AL1, first lipid binding to AmtB): 19.9 ± 1.65 µM
Kd (AmtB; read-out: KD,AL2, second lipid binding to AmtB): 30.2 ± 2.05 µM
Kd (AmtB; read-out: KD,AL3, third lipid binding to AmtB): 33.1 ± 6.01 µM
Coupling factor a1 (AmtB–GlnK interaction): 1.17 ± 0.09
Kd (AmtB–GlnK interaction; read-out: KD,AG, GlnK binding apo AmtB, from global fit of the titration with the named lipid): 0.517 ± 0.0312 µM
Kd (AmtB–GlnK interaction; read-out: KD,AL2G, GlnK binding AmtB bound to 2 lipids): 0.443 ± 0.0689 µM
Kd (AmtB–GlnK interaction; read-out: KD,AL3G, GlnK binding AmtB bound to 3 lipids): 0.414 ± 0.0776 µM
Kd (AmtB–GlnK interaction; read-out: KD,ALG, GlnK binding AmtB bound to 1 lipid): 0.45 ± 0.0561 µM
allosteric modulation of AmtB–GlnK (from coupling factors) (AmtB–GlnK interaction): neutral allosteric modulation
effect of lipid-binding events on K D,ALnG (AmtB–GlnK interaction): little effect on K D,ALnG
Coupling factor a2 (AmtB–GlnK interaction): 1.03 ± 0.06
Coupling factor a3 (AmtB–GlnK interaction): 1.11 ± 0.15
Kd (AmtB–GlnK complex; read-out: KD,AGL1, first lipid binding to AmtB–GlnK): 17 ± 0.17 µM
Kd (AmtB–GlnK complex; read-out: KD,AGL2, second lipid binding to AmtB–GlnK): 29.3 ± 1.42 µM
Kd (AmtB–GlnK complex; read-out: KD,AGL3, third lipid binding to AmtB–GlnK): 29.5 ± 1.68 µM

From article PMC5736629, “Allosteric modulation of protein-protein interactions by individual lipid binding events” (Nature Communications, 2017)
